Laboratory results taken from patent US11691992B2 (Anacor Pharmaceuticals, Inc., priority 2017, dated 2023).

How the values were obtained:
[1] = system: luciferase-expressing L. major parasites developing intracellularly inside RAW 264.7 macrophages; test: Leishmania major intracellular amastigote assay in RAW 264.7 macrophages (luciferase); type: cell-based; conditions: RAW264.7, 96 hours, read-out: IC50: I Org. intracellular amastigote Growth L. major, 4 d
In short: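 RAW 264.7 macrophages infected overnight with luciferase-expressing L. major promastigotes, washed of extracellular parasites, then exposed to two-fold compound dilutions (final 0.5-10,000 ng/ml) for 96 h at 37° C, 5% CO2. Luciferin luminescence after 30 min; IC50 by sigmoidal variable-slope regression.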

[2] = system: TdTomato-modified T. cruzi (CL strain) in Vero cells; test: In vitro IC50 measurement of T. cruzi amastigote killing using TdTomato-modified T. cruzi (CL strain); type: cell-based; conditions: Trypanosoma cruzi, 72 h, fluorescence, read-out: IC50: I Org. amastigote Growth T. cruzi CL TdTomato, 3 d
In short: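 Vero cells were infected with tdTomato-expressing CL-strain parasites and dosed at 5 uM–5 nM. Fluorescence (ex 544/em 612 nm) was read at day 0 and again after 72 h at 37 °C, with day 0 values subtracted. IC50 and IC90 came from nonlinear regression.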

| SMILES | IC50 [1] | IC50 [2] |
| --- | --- | --- |
| O=C(Nc1ccc2c(c1)B(O)OC21CCC1)c1cn(-c2ccc(F)cc2)nn1 [Example 7, 1-(4-fluorophenyl)-N-(1-hydroxy-1H-spiro[benzo[c][1,2]oxaborole-3,1′-cyclobutan]-6-yl)-1H-1,2,3-triazole-4-carboxamide] | 1100 to 9900 nM | 1100 to 10000 nM |
| O=C(Nc1ccc2c(c1)B(O)OC2)c1cn(-c2ccccn2)nn1 [Example 61, N-(1-hydroxy-1,3-dihydrobenzo[c][1,2]oxaborol-6-yl)-1-(pyridin-2-yl)-1H-1,2,3-triazole-4-carboxamide] | 1100 to 9900 nM | < 600 nM |
| CC1OB(O)c2cc(NC(=O)c3cn(-c4ccc(F)cc4)nn3)ccc21 (stereo not drawn) [Example 5] | ≤ 1000 nM | 600 to 1000 nM |
